Data taken from patent publication US20050107386A1, “Methods of treating diseases and disorders by targeting multiple kinases” (priority 2003, published 2005).

Experiments:
Assay type in all cases: biochemical
CDK1/cyclinB(h) = CDK1/cyclinB(h) (Homo sapiens, UniProt P06493); assay: CDK1/cyclinB(h) kinase assay; conditions: for Inhibitory activity (% of control), CDK1/cyclinB(h): 3 μM, percent of control kinase activity
Method: (§1) Six compounds (presumptive single agents) were tested against a panel of 50 kinases. The results are presented in Table 2; numbers for each kinase indicate the percent of control kinase activity in the presence of a 3μM concentration of the indicated agent.
(§2) Agents that target two or more different kinases are useful in the methods of the invention as described elsewhere herein. Such compounds may be identified, and their effect on certain kinases may be identified, using the assays briefly described below in Examples 4-83. Each of these assays was carried out as described in Davies et al., Biochem. J., 351:95-105 (2000). All assays were carried out at 10 μM ATP unless otherwise noted.
(§3) In a final reaction volume of 25 μl, CDK1/cyclinB (h) (5-10 mU) is incubated with 8 mM MOPS pH 7.0, 0.2 mM EDTA, 0.1 mg/ml histone H1, 10 mM MgAcetate and [γ-^33p-ATP] (specific activity approx. 500 cpm/pmol, concentration as required). The reaction is initiated by the addition of Mg^2+ [γ-33 P-ATP]. After incubation for 40 minutes at room temperature, the reaction is stopped by the addition of 5 μl of a 3% phosphoric acid solution. 10 μl of the reaction is then spotted onto a P30 filtermat and washed three times for 5 minutes in 75 mM phosphoric acid and once in methanol prior to drying and scintillation counting.

CHK2(h) = CHK2(h) (Homo sapiens, UniProt O96017); assay: CHK2(h) kinase assay; conditions: 3 μM; percent of control kinase activity
Method: as §1, §2
as §3, with “CHK2” for “CDK1/cyclinB”, “7.0,0.2” for “7.0, 0.2”, “200 μM […] (SEQ ID NO:5),” for “0.1 mg/ml histone H1,”, “[γ-^33P-ATP]” for “[γ-^33p-ATP]”, “[γ-^33P-ATP].” for “[γ-33 P-ATP].”

Lyn(h) = Lyn(h) (Homo sapiens, UniProt P07948); assay: Lyn(h) kinase assay; conditions: 3 μM; percent of control kinase activity
PDK1(h) = molecular target: T1, PDK1(h) (Homo sapiens, UniProt O15530); assay: PDK1(h) kinase assay; conditions: 3 μM; percent of control kinase activity
T1 sequence (O15530 1-556): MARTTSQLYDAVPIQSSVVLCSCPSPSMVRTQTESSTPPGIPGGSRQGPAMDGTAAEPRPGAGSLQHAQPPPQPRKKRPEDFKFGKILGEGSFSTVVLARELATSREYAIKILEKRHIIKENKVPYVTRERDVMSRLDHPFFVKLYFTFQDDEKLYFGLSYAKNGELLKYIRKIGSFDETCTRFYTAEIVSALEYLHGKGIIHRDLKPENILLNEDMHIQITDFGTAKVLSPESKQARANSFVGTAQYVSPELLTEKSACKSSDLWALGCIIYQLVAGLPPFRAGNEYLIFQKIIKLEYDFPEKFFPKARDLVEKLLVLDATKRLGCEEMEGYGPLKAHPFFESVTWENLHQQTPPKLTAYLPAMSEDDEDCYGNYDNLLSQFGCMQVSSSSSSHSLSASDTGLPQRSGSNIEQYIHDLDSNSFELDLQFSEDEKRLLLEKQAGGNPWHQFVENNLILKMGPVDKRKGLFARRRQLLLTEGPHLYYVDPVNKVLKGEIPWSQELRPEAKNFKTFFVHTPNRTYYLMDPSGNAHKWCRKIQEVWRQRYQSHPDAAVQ
Method: as §1, §2
as §3, with “PDK1” for “CDK1/cyclinB”, “50” for “8”, “Tris” for “MOPS”, “7.5, 100 μM […] (SEQ ID NO:13) (PDKtide), 0.1% β-mercaptoethanol,” for “7.0, 0.2 mM EDTA, 0.1 mg/ml histone H1,”, “[γ-^33P-ATP]” for “[γ-^33p-ATP]”, “[γ-^33P-ATP].” for “[γ-33 P-ATP].”

PKCε(h) = molecular target: T2, PKCε(h) (Homo sapiens, UniProt Q02156); assay: PKCε(h) kinase assay; conditions: 3 μM; percent of control kinase activity
T2 sequence (Q02156 1-737): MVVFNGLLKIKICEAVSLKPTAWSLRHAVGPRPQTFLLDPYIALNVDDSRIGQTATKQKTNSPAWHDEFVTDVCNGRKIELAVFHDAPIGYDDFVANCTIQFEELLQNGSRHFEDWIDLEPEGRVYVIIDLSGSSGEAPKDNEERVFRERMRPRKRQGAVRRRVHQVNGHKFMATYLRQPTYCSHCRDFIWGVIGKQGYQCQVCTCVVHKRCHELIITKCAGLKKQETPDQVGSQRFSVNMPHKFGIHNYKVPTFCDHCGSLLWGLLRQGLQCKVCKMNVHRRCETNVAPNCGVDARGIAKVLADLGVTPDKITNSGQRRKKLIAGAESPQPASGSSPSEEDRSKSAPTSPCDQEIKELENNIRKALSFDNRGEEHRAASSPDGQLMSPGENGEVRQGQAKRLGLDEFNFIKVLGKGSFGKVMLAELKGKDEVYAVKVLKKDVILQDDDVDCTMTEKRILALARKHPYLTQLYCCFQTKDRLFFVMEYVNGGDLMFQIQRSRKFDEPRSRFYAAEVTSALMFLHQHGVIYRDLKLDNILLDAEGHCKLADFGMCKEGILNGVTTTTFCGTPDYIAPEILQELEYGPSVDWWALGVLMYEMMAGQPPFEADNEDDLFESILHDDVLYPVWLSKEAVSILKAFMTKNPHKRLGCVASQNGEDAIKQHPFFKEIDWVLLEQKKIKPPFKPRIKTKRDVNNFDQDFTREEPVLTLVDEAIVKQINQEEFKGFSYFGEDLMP
Method: as §1, §2
In a final reaction volume of 25 μl, PKCε(h) (5-10 mU) is incubated with 20 mM Hepes pH 7.4, 0.03% Triton X-100, 0.1 mg/ml phosphatidylserine, 10 μg/ml diacylglycerol, 50 μM […] (SEQ ID NO: 18), 10 mM MgAcetate and [γ-^33P-ATP] (Specific activity approx. 500 cpm/pmol, concentration as required). The reaction is initiated by the addition of Mg^2+ [γ-^33P-ATP]. After incubation for 40 minutes at room temperature, the reaction is stopped by the addition of 5 μl of a 3% phosphoric acid solution. 10 μl of the reaction is then spotted onto a P30 filtermat and washed three times for 5 minutes in 75 mM phosphoric acid and once in methanol prior to drying and scintillation counting.

CHK2(h), sequence (O96017 whole entry): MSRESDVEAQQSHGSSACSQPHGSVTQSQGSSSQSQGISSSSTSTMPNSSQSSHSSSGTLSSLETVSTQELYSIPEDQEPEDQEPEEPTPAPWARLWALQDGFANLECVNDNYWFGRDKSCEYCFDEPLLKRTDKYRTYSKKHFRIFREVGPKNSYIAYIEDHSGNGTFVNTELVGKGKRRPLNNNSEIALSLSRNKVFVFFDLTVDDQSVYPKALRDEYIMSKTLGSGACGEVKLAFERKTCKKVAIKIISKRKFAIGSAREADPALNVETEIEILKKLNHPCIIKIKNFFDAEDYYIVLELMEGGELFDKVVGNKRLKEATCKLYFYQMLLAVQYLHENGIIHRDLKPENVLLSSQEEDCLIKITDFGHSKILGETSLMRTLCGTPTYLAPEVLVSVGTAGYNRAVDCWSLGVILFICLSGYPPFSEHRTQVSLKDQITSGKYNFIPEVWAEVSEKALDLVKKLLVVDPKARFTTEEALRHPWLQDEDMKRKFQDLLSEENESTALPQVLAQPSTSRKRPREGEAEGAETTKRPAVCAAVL
Lyn(h), sequence (P07948 2-512 limits assumed): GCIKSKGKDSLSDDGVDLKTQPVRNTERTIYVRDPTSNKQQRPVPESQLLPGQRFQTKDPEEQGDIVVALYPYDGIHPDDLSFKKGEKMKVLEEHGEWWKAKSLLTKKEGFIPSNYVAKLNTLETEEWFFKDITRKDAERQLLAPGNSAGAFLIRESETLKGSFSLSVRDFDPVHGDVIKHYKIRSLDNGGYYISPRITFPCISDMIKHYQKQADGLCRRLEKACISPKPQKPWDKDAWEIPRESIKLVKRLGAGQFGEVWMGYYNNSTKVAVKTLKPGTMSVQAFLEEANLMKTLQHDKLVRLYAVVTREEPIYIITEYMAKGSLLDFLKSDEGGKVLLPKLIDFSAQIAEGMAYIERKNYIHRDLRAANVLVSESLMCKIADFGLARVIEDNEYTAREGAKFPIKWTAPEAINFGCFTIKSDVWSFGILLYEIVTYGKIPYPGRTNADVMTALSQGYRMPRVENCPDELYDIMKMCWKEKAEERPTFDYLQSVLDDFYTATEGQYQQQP
CDK1/cyclinB(h), sequence (P06493 whole entry): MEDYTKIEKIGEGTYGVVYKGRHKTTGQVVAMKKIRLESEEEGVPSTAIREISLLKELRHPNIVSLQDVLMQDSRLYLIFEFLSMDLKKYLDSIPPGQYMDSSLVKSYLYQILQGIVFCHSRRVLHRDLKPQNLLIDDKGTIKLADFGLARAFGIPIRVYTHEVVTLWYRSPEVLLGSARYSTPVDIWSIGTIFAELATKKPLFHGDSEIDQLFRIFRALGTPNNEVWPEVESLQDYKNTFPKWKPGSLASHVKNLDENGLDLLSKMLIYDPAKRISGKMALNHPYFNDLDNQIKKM
CDK1/cyclinB(h), sequence (P14635 whole entry partner): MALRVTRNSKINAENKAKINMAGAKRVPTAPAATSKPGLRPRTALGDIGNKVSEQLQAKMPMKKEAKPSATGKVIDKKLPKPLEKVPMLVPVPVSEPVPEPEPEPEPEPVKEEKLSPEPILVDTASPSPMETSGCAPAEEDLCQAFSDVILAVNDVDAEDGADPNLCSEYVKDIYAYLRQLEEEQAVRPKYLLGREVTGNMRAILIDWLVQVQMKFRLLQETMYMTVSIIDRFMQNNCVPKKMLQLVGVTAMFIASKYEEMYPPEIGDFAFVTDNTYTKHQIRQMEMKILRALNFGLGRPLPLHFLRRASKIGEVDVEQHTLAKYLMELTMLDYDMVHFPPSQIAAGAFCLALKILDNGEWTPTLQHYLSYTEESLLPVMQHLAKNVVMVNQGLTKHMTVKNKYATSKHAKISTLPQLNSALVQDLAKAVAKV

Row | SMILES | Inhibitory activity (% of control), CDK1/cyclinB(h) (CDK1/cyclinB(h)) | Inhibitory activity (% of control), CHK2(h) (CHK2(h)) | Inhibitory activity (% of control), Lyn(h) (Lyn(h)) | Inhibitory activity (% of control), PDK1(h) (PDK1(h)) | Inhibitory activity (% of control), PKCε(h) (PKCε(h)) | inhibitory activity against CDK1, in words (CDK1/cyclinB(h); summary of Table 2)
1 | COc1ccc2cc(-c3n[nH]c4ccc(-c5n[nH]c(CN6CCOCC6)n5)cc34)ccc2c1 [CC001, 3-(6-Methoxynaphthalen-2-yl)-5-(5-Morpholin-4-Ylmethyl-1H-[1,2,4]Triazol-3-yl)-1H-Indazole] | 2 % of control | 2 % of control | 5 % of control | 59 % of control | 82 % of control | 
2 | CC(C)Cc1nc(-c2ccc3[nH]nc(-c4ccc5cc(OCCN6CCCC6)ccc5c4)c3c2)n[nH]1 [CC002, 5-(5-Isobutyl-1H-[1,2,4]Triazol-3-yl)-3-[6-(2-Pyrrolidin-1-yl-Ethoxy)-Naphthalen-2-yl]-1H-Indazole] | 2 % of control | 1 % of control | 2 % of control | 58 % of control | 58 % of control | 
3 | CC(C)(C)Cc1nc(-c2ccc3[nH]nc(-c4ccc5cc(OCc6ccccn6)ccc5c4)c3c2)n[nH]1 [CC004, 5-[5-(2,2-Dimethyl-propyl)-1H-[1,2,4]triazol-3-yl]-3-[6-(pyridine-2-ylmethoxy)-naphthalen-2-yl]-1H-indazole] | 1 % of control | 7 % of control | 62 % of control | 70 % of control | 105 % of control | good inhibitory activity
4 | CCN1CCC[C@H]1COc1ccc2cc(-c3n[nH]c4ccc(-c5nc(CC(C)(C)C)n[nH]5)cc34)ccc2c1 [CC005, 2-[((2s)-1-ethylpyrrolidin-2-yl)methoxy]-6-{5-[3-(2,2-Dimethylpropyl)(1H-1,2,4,-triazol-5-yl)](1H-indazol-3-yl)}naphthalene] | 1 % of control | 1 % of control | 2 % of control | 59 % of control | 84 % of control | 

Now from value to compound:

Row | Inhibitory activity (% of control), CDK1/cyclinB(h) (CDK1/cyclinB(h)) | Inhibitory activity (% of control), CHK2(h) (CHK2(h)) | Inhibitory activity (% of control), Lyn(h) (Lyn(h)) | Inhibitory activity (% of control), PDK1(h) (PDK1(h)) | Inhibitory activity (% of control), PKCε(h) (PKCε(h)) | inhibitory activity against CDK1, in words (CDK1/cyclinB(h); summary of Table 2) | SMILES
5 | 3 % of control | 20 % of control | 23 % of control | 43 % of control | 82 % of control |  | Fc1ccc(-c2n[nH]c3ccc(-c4n[nH]c(C5CCCC5)n4)cc23)cc1 [CC006, 5-(5-Cyclopentyl-1H-[1,2,4]triazol-3-yl)-3-(4-fluoro-phenyl)-1H-indazole, reference compound]
6 | 26 % of control | 6 % of control | 61 % of control | 97 % of control | 79 % of control |  | O=C(NC1CCCC1)c1cccc(-c2n[nH]c3ccc(-c4nc[nH]n4)cc23)c1 [CC007, 3-(5-(1H-1,2,4-triazol-3-yl)(1H-indazol-3-yl))phenyl-N-cyclopentylcarboxamide, reference compound]
